According to patent EP0580252A2, “Improvements in or relating to pectin methyl esterase” (QUEST INTERNATIONAL B.V., priority 1992, dated 1994):

Experiments:
[1] = system: ficin derived PME (pectin methyl esterase); assay: Inhibition test with tyrosine selective inhibitor N-acetyl-imidazole; type: biochemical, fig; conditions: NAI 1.4mg.100 ml; 1% pectin; enzyme 0.005-0.088%
Protocol: (§1) Bacterial and plant derived PMEs were tested for inhibition by N-acetyl-imidazole (NAI), a tyrosine selective inhibitor.
(§2) Inhibition by N-acetyl-imidazole was carried out in three different ways: by addition of the NAI to enzyme solution, to pectin solution, and to mixed enzyme and substrate. Typically we used 1% pectin (5% for papain also), enzyme concentrations of 0.005-0.088% and NAI concentrations of 1.4mg.100 ml.

[2] = system: papain derived PME (pectin methyl esterase); assay: as above; type: biochemical, papaya; conditions: NAI 1.4mg.100 ml; 1% pectin (5% for papain also); enzyme 0.005-0.088%
Protocol: as §1, §2

[3] = system: bromelain derived PME (pectin methyl esterase); assay: as above; type: biochemical, bromelard; conditions: NAI 1.4mg.100 ml; 1% pectin; enzyme 0.005-0.088%
Protocol: as §1, §2

orange PME = assay: as above; type: biochemical; conditions: NAI 1.4mg.100 ml; 1% pectin; enzyme 0.005-0.088%
Protocol: as §1, §2

tomato PME = assay: as above; type: biochemical; conditions: NAI 1.4mg.100 ml; 1% pectin; enzyme 0.005-0.088%
Protocol: as §1, §2

bacterial PMEs = assay: as above; type: biochemical; conditions: NAI 1.4mg.100 ml; 1% pectin; enzyme 0.005-0.088%
Protocol: as §1, §2

[4] = system: WGL (wheat germ lipase) derived PME (pectin methyl esterase); assay: as above; type: biochemical; conditions: NAI 1.4mg.100 ml; 1% pectin; enzyme 0.005-0.088%
Protocol: as §1, §2

papain PME = assay: Effect of methanol (reaction product) on PME activity; type: biochemical, papaya; conditions: methanol concentration not stated
[5] = system: PMEs (papain PME, ficin PME and other known plant PMEs); assay: Inhibition of PME activity by galacturonic acid; type: biochemical; conditions: up to concentrations of 25 gl⁻¹

## CC(=O)n1ccnc1 [NAI, N-acetyl-imidazole]
[1]
  inhibition by NAI: not to be inhibited
[2]
  inhibition by NAI: not to be inhibited
[3]
  inhibition by NAI: not to be inhibited
Orange PME
  inhibition by NAI: inhibited
Tomato PME
  inhibition by NAI: inhibited
Bacterial PMEs
  inhibition by NAI: inhibited
[4]
  inhibition by NAI: not to be inhibited

## CO [methanol]
Papain PME; 1% pectin
  inhibition by methanol: inhibited
Papain PME; 5% pectin
  inhibition by methanol: hardly noticed
Papain PME
  inhibition by methanol: under certain conditions is inhibited and YES

## galacturonic acid
[5]
  inhibition by galacturonic acid: None of the PMEs is inhibited
